Source: PMC4222488, “Lipid droplet binding thalidomide analogs activate endoplasmic reticulum stress and suppress hepatocellular carcinoma in a chemically induced transgenic mouse model” (Lipids in Health and Disease, 2013)

Legend:
Hep3B [1] = assay: ROS determination (DCFDA fluorescence, FACS); type: cell-based, human
Experimental: ROS generation was determined by the increase in DCFDA (2',7'-dichlorodihydrofluorescein diacetate, Sigma) fluorescence after drug stimulation. HepG2 cells were washed, resuspended in 1% bovine serum albumin in Hanks buffered saline solution (BSA-HBSS) at 10^6 cells/mL and maintained at 37°C for analysis. Cells were treated with the indicated drugs (Ac-915, Ac-2010). DCFDA was added 60 min prior to harvest, at 2 μM final concentration and intracellular ROS production was measured by using a fluorescence activated cell sorter (Beckton Dickinson) with 20,000 events/test. All the other parameters and calculations were as described before.
Toxic compounds and numerous anticancer agents interfere with chaperone and ER functions leading to cellular stress which is manifested by elevated reactive oxygen species (ROS) and dramatic decrease in the anti-oxidant, glutathione (GSH) level. To investigate whether Ac-915 and Ac-2010 exert a pro-oxidative effect as determined earlier for other amino-trifluoro-phthalimides and “redox-reactive” thalidomide analogs, we measured the presence of ROS in human hepatocellular carcinoma cells (Hep3B) Figure 4a. To reveal the correlation of depletion of glutathione and ROS production of the analogs we determined the intracellular concentrations of glutathione. […]

Hep3B [2] = assay: Glutathione measurement (GSH-Glo); type: cell-based, human; settings: treated Hep3B cells
Experimental: HepG2 cells (20000 cells per well in a 96-well plate) were incubated with Ac-915 in 50 μl PBS for 2 hours in a humidified atmosphere of 95% air and 5% CO2. 50 μl aliquots of prepared 2X GSH-GloTM Reagent (GSH-GloTM Glutathione assay; Promega, Madison, WI) were added to the wells and incubation continued at room temperature for 30 minutes. 100 μl of reconstituted Luciferin Detection Reagent (Promega) was added to each well and cells were incubated for 15 minutes further. Negative controls and blank reactions were also prepared. The amount of light produced was detected by luminometer.
Toxic compounds and numerous anticancer agents interfere with chaperone and ER functions leading to cellular stress which is manifested by elevated reactive oxygen species (ROS) and dramatic decrease in the anti-oxidant, glutathione (GSH) level. To investigate whether Ac-915 and Ac-2010 exert a pro-oxidative effect as determined earlier for other amino-trifluoro-phthalimides and “redox-reactive” thalidomide analogs, we measured the presence of ROS in human hepatocellular carcinoma cells (Hep3B) Figure 4a. To reveal the correlation of depletion of glutathione and ROS production of the analogs we determined the intracellular concentrations of glutathione. To determine whether Ac-915 and Ac-2010 affect intracellular GSH levels Hep3B cells were treated with compounds and GSH levels were recorded.

[3] = Tissue distribution by fluorescent confocal microscopy of native tissue sections after i.v. injection; type: in vivo; settings: mice, i.v. 20 mg/kg
Experimental: Mice were injected i.v. with Ac-915 or Ac-2010 (20 mg/kg) and after different time points tissues were dissected, washed in PBS, embedded in Tissue-Tek® O.C.T™ medium. After fast-freezing, the samples were stored at −20°C. Tissue sections (20 μm) were prepared by using a Leica CM1950 cryostat at −20°C. From each tissue (liver, brain, kidney, muscle, heart) three independent images were recorded as above. Images were analyzed with the Olympus Fluoview 1.6 Ver Viewer software.
To determine the tissue distribution of trifluor-amino-phtalimides, compounds were administered by i.v. injection into mice, the animals were killed at different time points and different organs were dissected. Native microscope sections were prepared and analyzed under fluorescent microscope. Because our analogs have strong inherent blue fluorescence, relative tissue distribution can be determined by using fluorescent microscopy with 405 nm laser with DAPI configuration. […] The target organs of Ac-915 seemed to be the kidney and preferentially, the liver.

DEN-induced liver tumors = assay: DEN-induced hepatocellular carcinoma in Matn2-/- mice; type: in vivo; settings: started 4 months after DEN, assessed 8 months after DEN
Experimental: All mice were fed a commercial diet and water ad libitum and were housed in an animal facility under a 12 h light/dark cycle at constant temperature and humidity. For all of our studies, we employed male Matn2-deficient mice (Matn2^−/−) congenic in the 129/Sv genetic background.
For studies of liver tumor development, 15-day-old mice were treated with a single dose of DEN (Sigma-Aldrich, Budapest, Hungary) dissolved in saline at a dose of 25 mg/kg body weight by i.p. injection. 4 months after DEN injection mice were treated with either Ac-915 for 3 months (n = 15) or with Ac-2010 for 1 month (n = 10). Mice were killed 8 months after DEN administration for determination of tumor occurrence (number of tumor nodules) and liver mass index (liver weight/body weight × 100). Treatments were conducted by i.p. injection of Ac-915 at a dose of 10 mg/kg body weight three times a week or Ac-2010 at a dose of 4 mg/kg body weight three times a week.
For studies of liver tumor development, 15-day-old mice were treated with a single dose of DEN as described previously. Mice in the Ac-915 treated group (n = 15) were treated 4 months after DEN treatment for an additional 3 months. […] Mice were killed 8 months after DEN administration and the number and size of tumors and liver mass index were determined.
Liver samples were analyzed at the same time point, 8 months after DEN administration. […]

HepG2 cell migration = assay: Real-time cell migration assay, RTCA DP xCELLigence (CIM-plate 16); type: cell-based, human
[4] = Acute toxicity (data not shown); type: in vivo
[5] = Solubility (data not shown); type: physicochemical

Structure (SMILES) | Intracellular ROS induction (Hep3B [1]) | Intracellular GSH levels (Hep3B [2]) | Fluorescence in the liver [3] | Time of peak fluorescence in the liver [3] [h] | Fluorescence in the kidney ([3]; 2 and 4 h after administration) | Fluorescence in the brain ([3]; 1 h after administration) | Fluorescence in the heart ([3]; 4 h after administration) | Liver tumor development vs control mice (DEN-induced liver tumors; 10 mg/kg i.p. three times a week for 3 months) | Inhibition of cell migration (HepG2 cell migration; 250 nM) | Inhibition of cell migration (HepG2 cell migration; higher concentration, 2 h after administration) | Liver tumor incidence, number of tumors and liver mass index vs untreated control (DEN-induced liver tumors; 4 mg/kg i.p. three times a week for 1 month, p < 0.01) | Acute toxicity compared with Ac-915 [4] | Solubility compared with Ac-915 [5]
CC(C)c1cccc(C(C)C)c1N1C(=O)c2c(F)c(F)c(F)c(N[C@@H]3C=CS(=O)(=O)C3)c2C1=O [Ac-915, 2-[2,6-bis(propane-2-yl)phenyl]-4-{[(3R)-1,1-dioxo-2,3-dihydro-thiophene-3-yl]amino}-5,6,7-trifluoro-2,3-dihydro-1H-isoindole-1,3-dione] | induce intracellular reactive oxygen species | depleted intracellular GSH levels | strong fluorescent signals | 4 | strong signals | only a slight fluorescence increase | minor fluorescence increase | significantly less tumor development | – | – | – | – | –
CC(C)c1cccc(C(C)C)c1N1C(=O)c2c(F)c(F)c(F)c(NC(=O)NC(=O)CCl)c2C1=O [Ac-2010] | induce intracellular reactive oxygen species | depleted intracellular GSH levels | – | – | – | – | – | – | inhibited migration | completely inhibited cell migration | less liver tumor incidence, fewer tumors and lower liver mass index | higher acute toxicity | better solubility
